Measurements published in patent US5362480A, “Oral hygiene compositions containing amino sugars as antiplaque agents” (Lever Brothers Company, Division of Conopco, Inc., priority 1992, dated 1994).
Values after ≈ are worked out from the molar mass of the structure shown. Where two headings read alike, the source gives them in different places.

Key:
[1] = tested on: Clinical plaque strains; conditions: mouth rinse, five human individuals; cited from earlier work
[2] = tested on: Actinomyces strains 12104 and LY7; conditions: cited from earlier work
[3] = tested on: A. naeslundii PK29; assay: Latex bead-bacterial agglutination assay (asialofetuin-coated latex beads); assay type: cell-based, Actinomyces naeslundii PK29
Protocol: A latex bead agglutination assay was utilized to determine the effects of the amino sugars on lectin-mediated bacterial adherence to glycoprotein-coated surfaces. Latex beads (6.0 micrometer diameter) were prepared by suspending them in a 0.5 mg/ml solution of asialofetuin (a glycoprotein rich in oligosaccharide side chains which terminate in β-galactosyl groups) in 20.0 mM trishydroxyaminomethane buffer (ph=8.2) containing 0.73% glycine, 1.0% sodium chloride, 0.1 mM calcium chloride, and 0.02% sodium azide (TGS buffer). The beads were treated for 30.0 min at 37 degrees C. after which they were washed and resuspended in 0.1% BSA in TGS buffer. A. naeslundii PK29 cells were cultured as described in Bacterial Coaggregation Assay, washed, and resuspended in TGS buffer to an optical density (540 nm) of 1.5. The bacterial suspension (0.1 ml) and the prepared latex beads (1.0 ml) were combined with an appropriate concentration of inhibitor (0.8 ml) in 3.0 ml capped polystyrene cuvettes. The cuvettes were gently inverted at room temperature, and optical density (OD 540nm, 1 cm path length) was monitored at 2.0 min intervals for 20.0 min. The instrument employed was Gilson Response®.
The ability of the amino sugars to inhibit bacterial adhesion was also tested using the latex bead assay described above (Methods section). This assay measures the ability of the test agents to interfere with bacterial adhesion to a glycoprotein-coated solid surface, which is analogous to pellicle coated tooth surface. Agglutination of asialofetuin-coated latex beads by A. naeslundii PK29 performed as described above. Inhibition was calculated as 1.0--the change in optical density (540 nm) in the sample containing the inhibitor/the change in optical density in the coaggregation buffer control.

[4] = Bacterial coaggregation assay (A. naeslundii PK29 with S. sanguis G9B); assay type: cell-based, Actinomyces naeslundii PK29; Streptococcus sanguis G9B; conditions: Actinomyces naeslundii
Protocol: (§1) A bacterial coaggregation assay was used to determine the ability of various amino sugars to interfere with lectin-mediated binding among various bacterial species. For instance, many Actinomyces naeslundii strains coaggregate with Streptococcus sanguis as a result of binding between a lectin produced by the A. naeslundii cells and β-galactose-containing structures on the surface of the streptococci. For the present assay, A. naeslundii PK29 and S. sanguis G9B were cultured overnight in a medium containing 2.5% tryptone, 1.5% yeast extract, 0.1% magnesium sulfate, and 1.0% fructose. The cells were then washed twice in a 1.0 mM potassium phosphate buffer (pH=6.8) containing 1.0 mM calcium chloride, 0.1 mM magnesium chloride, and 50.0 mM potassium chloride (buffered KCl), after which they were resuspended in buffered KCl at an optical density (540 nm) of 1.5. The coaggregations were performed by combining 0.5 ml of each bacterial suspension with 0.2 ml of 5.0% bovine serum albumin (BSA) and 0.8 ml of an appropriate concentration of a targeted anti-plaque agent in 3.0 ml capped polystyrene cuvettes. The cuvettes (path length 1 cm) were gently inverted at room temperature, and the optical density (540 nm) was determined as a function of time (2.0 min intervals; 20 min).
(§2) The instrument employed to measure optical density was a variable wavelength spectrophotometer (Gilson Respons® Spectrophotometer, bought from Gilson).
(§3) The activity of a tested compound was expressed as inhibition relative to buffer controls (i.e., % inhibition=[1-change in optical density (inhibitor)]/change in optical density [control])×100.
(§4) The ability of various amino sugars (prepared as described in Examples 1 and 2) to target to β-galactose-specific binding proteins on A. naeslundii and thus to interfere with coaggregation interactions between A. naeslundii and S. sanguis was investigated. Coaggregation of Actinomyces naeslundii PK29 and Streptococcus sanguis G9B was performed as described in the Methods section (Bacterial Coaggregation Assay) above. Inhibition was calculated as 1.0--the change in optical density (540 nm) in the sample containing compound tested/the change in optical density in the coaggregation buffer control.

[5] = tested on: Actinomyces viscosus; conditions: cited from earlier work
[6] = tested on: Actinomyces naeslundii; conditions: cited from earlier work
[7] = tested on: Actinomyces naeslundii; assay: Antimicrobial activity determination (MIC); assay type: cell-based; conditions: read-out: Minimum Inhibitory Concentration, Actinomyces naeslundii
Protocol: (§5) The antimicrobial activity of the targeted agents was assessed by determining the minimum inhibitory concentration (MIC). Pure cultures of various strains of oral bacterial species as indicated in Table 3 were combined with serial dilutions of the targeted agents in beef heart infusion broth (BHI); starting bacterial concentrations were approximately 1.0×10E6 colony forming units (CFU) per ml. The mixtures were incubated aerobically at 37 degrees C. and the optical density (540 nm, path length 1 cm) of the cultures was measured at 0.0, 24.0 and 48.0 hr using Bausch and Lomb Spec 20 variable wavelength spectrophotometer.
(§6) The amino sugars within the scope of the invention and other compounds were tested for their bacteriostatic effects on the growth of several species of oral bacteria.

[8] = tested on: Streptococcus sobrinus; assay: Antimicrobial activity determination (MIC); assay type: cell-based, Streptococcus sobrinus 6715; conditions: read-out: Minimum Inhibitory Concentration, Streptococcus sobrinus
Protocol: as §5, §6

[9] = tested on: Streptococcus sanguis; assay: Antimicrobial activity determination (MIC); assay type: cell-based; conditions: read-out: Minimum Inhibitory Concentration, Streptococcus sanguis
Protocol: as §5, §6

[10] = tested on: coaggregation of Actinomyces naeslundii PK29 and Streptococcus sanguis G9B (β-galactose-specific binding proteins on A. naeslundii); assay: Bacterial coaggregation assay (A. naeslundii PK29 with S. sanguis G9B); assay type: cell-based; conditions: for inhibition compared to the parent saccharide, lactose: vs lactose
Protocol: as §1, §2, §3, §4

[11] = tested on: Neisseria subflava; assay: Antimicrobial activity determination (MIC); assay type: cell-based, Neisseria subflava A1078; conditions: read-out: Minimum Inhibitory Concentration, Neisseria subflava
Protocol: as §5, §6

[12] = tested on: Porphyromonas gingivalis; assay: Antimicrobial activity determination (MIC); assay type: cell-based, Porphyromonas gingivalis W83; conditions: read-out: Minimum Inhibitory Concentration, Porphyromonas gingivalis
Protocol: as §5, §6

[13] = tested on: Prevotella intermedius; assay: Antimicrobial activity determination (MIC); assay type: cell-based, Prevotella intermedius 25611; conditions: BHI broth, 37 degrees C., aerobic, read-out: Minimum Inhibitory Concentration, Prevotella intermedius
Protocol: as §5, §6

[14] = tested on: Veillonella dispar; assay: Antimicrobial activity determination (MIC); assay type: cell-based, Veillonella dispar 17745; conditions: BHI broth, 37 degrees C., aerobic, read-out: Minimum Inhibitory Concentration, Veillonella dispar
Protocol: as §5, §6

[15] = BHI broth, 37 degrees C., aerobic

In the case of CCO[C@H]1O[C@H](CO)[C@H](O)[C@H](O[C@@H]2O[C@H](CO)[C@H](O)[C@H](O)[C@H]2NC(C)=O)[C@H]1O [GalNAcβ-3Galα1-O-ethyl], the plaque inhibitory activity [1] is given as “plaque inhibitory activity” and the adherence [2] is given as “blocked adherence”.
Compound O=C[C@H](O)[C@@H](O)[C@@H](O)[C@H](O)CO [Galactose, reference compound] has an inhibition at 2800 µM ([3]; Actinomyces naeslundii, PK29) of 17% and an inhibition at 2800 µM [4] of 10%.
OC[C@H]1O[C@@H](O[C@H]2[C@H](O)[C@@H](O)C(O)O[C@@H]2CO)[C@H](O)[C@@H](O)[C@H]1O (stereo partly drawn) [Lactose, reference compound] showed an inhibition at 3000 µM [4] of 61%.
In the case of CCOC1O[C@H](CO)[C@H](O)[C@H](O[C@@H]2O[C@H](CO)[C@H](O)[C@H](O)[C@H]2NC(C)=O)[C@H]1O (stereo partly drawn) [N-acetyl-galactosamine-β1,3-galactose-O-ethyl], the “inhibition of binding to human erythrocytes” value [5] is given as “inhibitor of binding” and the “inhibition of binding to human erythrocytes” value [6] is given as “inhibitor of binding”.
For CCCCCCCCCCN[C@@H]1O[C@H](CO)[C@H](O)[C@H](O)[C@H]1O [N-decyl galactosylamine], the inhibition at 1800 µM ([3]; Actinomyces naeslundii, PK29) was 51% and the “inhibition of agglutination compared to galactose” value ([3]; vs galactose) was “substantially more potent inhibitor”.
In the case of CCCCCCCCCCNC1O[C@H](CO)[C@@H](O)[C@H](O)[C@H]1O (stereo partly drawn) [N-decyl glucosylamine], the MIC [7, 15] is reported as over 5000 µg/mL, the “inhibition of agglutination of glycoprotein-coated latex beads (in words)” value [3] is reported as “not an effective inhibitor” and the inhibition at 1800 µM ([3]; Actinomyces naeslundii, PK29) is reported as 9%.
CCCCCCCCCCN[C@@H]1O[C@H](CO)[C@@H](O[C@@H]2O[C@H](CO)[C@H](O)[C@H](O)[C@H]2O)[C@H](O)[C@H]1O [N-decyl lactosylamine] gave an MIC [8, 15] of 30 µg/mL (≈ 62.3 µM), an MIC [7, 15] of 30 µg/mL (≈ 62.3 µM) and an MIC [9, 15] of 600 µg/mL (≈ 1250 µM). The “inhibition of β-galactose-specific coaggregation (in words)” value [10] was “effective inhibitors”, the “inhibition compared to the parent saccharide, lactose” value [10] was “slighly improved inhibition” and the inhibition at 1000 µM [4] was 11%. The inhibition at 2100 µM [4] was 30%, the inhibition at 3000 µM [4] was 64% and the MIC [11, 15] was 60 µg/mL (≈ 125 µM).
In the case of CCCCCCCN[C@@H]1O[C@H](CO)[C@H](O)[C@H](O)[C@H]1O [N-heptyl galactosylamine], the MIC [8, 15] is reported as 1000 µg/mL (≈ 3610 µM), the MIC [7, 15] is reported as 250 µg/mL (≈ 901 µM) and the MIC [9, 15] is reported as over 1000 µg/mL. For the same compound, the “inhibition of β-galactose-specific coaggregation (in words)” value [10] was “effective inhibitors”, the “inhibition of bacterial coaggregation compared to the parent saccharide, galactose” value ([10]; at the concentration tested, vs galactose) was “approximately twice as much” and the inhibition at 2900 µM [4] was 20%. It also gave an MIC [11, 15] of 125 µg/mL (≈ 451 µM) and an MIC [12, 15] of 125 µg/mL (≈ 451 µM).
In the case of CCCCCCCN[C@@H]1O[C@H](CO)[C@@H](O[C@@H]2O[C@H](CO)[C@H](O)[C@H](O)[C@H]2O)[C@H](O)[C@H]1O [N-heptyl lactosylamine], the MIC [8, 15] is reported as 1000 µg/mL (≈ 2280 µM), the MIC [7, 15] is reported as 500 µg/mL (≈ 1140 µM) and the MIC [9, 15] is reported as over 1000 µg/mL. The “inhibition of β-galactose-specific coaggregation (in words)” value [10] was “effective inhibitors”, the “inhibition compared to the parent saccharide, lactose” value [10] was “slighly improved inhibition” and the inhibition at 1100 µM [4] was 23%. It also gave an inhibition at 3000 µM [4] of 63%, an inhibition at 11400 µM [4] of 79% and an MIC [11, 15] of 500 µg/mL (≈ 1140 µM). It also gave an MIC [12, 15] of 500 µg/mL (≈ 1140 µM).
For CCCCCCCCNC1O[C@H](CO)[C@@H](O)[C@H](O)[C@H]1O (stereo partly drawn) [N-octyl glucosylamine, reference compound], the “inhibition of β-galactose-specific coaggregation (in words)” value [10] was “lack of inhibition” and the inhibition at 3400 µM [4] was 0%.
For CCCCCCCCCCCCOS(=O)(=O)[O-].[Na+] [Sodium dodecyl sulfate, reference compound], the MIC [8] was 60 µg/mL, the MIC [7] was 8 µg/mL and the MIC [9] was 15 µg/mL. The MIC [11] was 8 µg/mL, the MIC [13] was 16 µg/mL and the MIC [14] was 60 µg/mL. The MIC [12] was 2 µg/mL.
